The numbers were not newly measured in PubChem BioAssay AID1259409 (Chemical Carcinogenesis Research Information System (CCRIS), 2018), which cites them from elsewhere.

In the series the test system is rodent chemically induced tumor inhibition, incidence and multiplicity. Briefly: CCRIS tumor inhibitor studies.

Consider `C=CC[C@@H]1/C=C(\C)C[C@H](C)C[C@H](OC)[C@H]2O[C@@](O)(C(=O)C(=O)N3CCCC[C@H]3C(=O)O[C@H](/C(C)=C/[C@@H]3CC[C@@H](O)[C@H](OC)C3)[C@H](C)[C@@H](O)CC1=O)[C@H](C)C[C@@H]2OC`, for which the “tumour outcome (control, treated, inhibition, significance)” value was 100%, 15%, 85%, not calculated (Carcinogen: 7,12-DIMETHYLBENZ[A]ANTHRACENE : 57-97-6, Dose [Inhibitor]: 0, 1 UMOL APPLIED 5 MIN PRIOR TO EACH PROMOTER DOSE FOR 22 WK BEGINNING 10 D POST CARCINOGEN DOSE (STUDY DURATION: 23 WK, Route [Inhibitor]: DERMAL, Species: MOUSE, Strain/Sex: CD-1/FEMALE, Target Tissue: Type of Lesion: SKIN: PAPILLOMA, Dose [Carcinogen]: 200 NMOL ONCE, Promoter: 12-O-TETRADECANOYLPHORBOL-13-ACETATE, 16561-29-8) and 100%, 38%, 62%, not calculated (Carcinogen: 7,12-DIMETHYLBENZ[A]ANTHRACENE, 57-97-6, Dose [Inhibitor]: 0, 0.1 UMOL APPLIED 15 MIN PRIOR TO EACH PROMOTER DOSE FOR 22 WK BEGINNING 10 D POST CARCINOGEN DOSE (STUDY DURATION: 23, Route [Inhibitor]: DERMAL, Species: (20,20)/(20,20), Strain/Sex: CD-1/FEMALE, Target Tissue: Type of Lesion: SKIN: PAPILLOMA, Dose [Carcinogen]: 200 NMOL ONCE, Promoter: 12-O-TETRADECANOYLPHORBOL-13-ACETATE, 16561-29-8).

Consider `CC1=C(/C=C/C(C)=C/C=C/C(C)=C/CO)C(C)(C)CCC1`, for which the “tumour outcome (control, treated, inhibition, significance)” value (Carcinogen: BENZO[A]PYRENE, 50-32-8, Dose [Inhibitor]: 0, 4000 IU/KG DIET BEGINNING 170 D PRIOR TO CARCINOGEN AND CONTINUING FOR STUDY DURATION (STUDY DURATION: 512 D), Route [Inhibitor]: ORAL, Species: HAMSTER, Strain/Sex: SYRIAN/MALE, Target Tissue: Type of Lesion: RESPIRATORY TRACT: TUMOR, Dose [Carcinogen]: 10 MG IN SALINE PLUS 8 MG FERRIC OXIDE 1/2 WK FOR 10 WK, Promoter: NONE USED) was 44%, 36%, 18%, not significant and the “tumour outcome (control, treated, inhibition, significance)” value (Carcinogen: BENZO[A]PYRENE, 50-32-8, Dose [Inhibitor]: 0, 100000 IU/KG DIET BEGINNING 170 D PRIOR TO CARCINOGEN AND CONTINUING FOR STUDY DURATION (STUDY DURATION: 512 D), Route [Inhibitor]: ORAL, Species: HAMSTER, Strain/Sex: SYRIAN/MALE, Target Tissue: Type of Lesion: RESPIRATORY TRACT: TUMOR, Dose [Carcinogen]: 10 MG IN SALINE PLUS 8 MG FERRIC OXIDE 1/2 WK FOR 10 WK, Promoter: NONE USED) is recorded as 44%, 35%, 20%, not significant.

Regarding `CCCN(CCC)c1c([N+](=O)[O-])cc(C(F)(F)F)cc1[N+](=O)[O-]`, the “tumour outcome (control, treated, inhibition, significance)” value (Carcinogen: BENZO[A]PYRENE, 50-32-8, Dose [Inhibitor]: 1000 PPM IN DIET CONTAINING 5% CORN OIL BEGINNING 1 WK PRIOR TO 1ST CARCINOGEN TREATMENT AND CONTINUING FOR 18 WK (STUDY, Route [Inhibitor]: ORAL, Species: MOUSE, Strain/Sex: STRAIN-A/FEMALE, Target Tissue: Type of Lesion: FORESTOMACH: SQUAMOUS CELL PAPILLOMA, Dose [Carcinogen]: 3 MG IN 0.25 ML CORN OIL AT 10 AND 12 WK OF AGE, Promoter: NONE USED) is given as 100%, 84%, 16%, not significant; the “tumour outcome (control, treated, inhibition, significance)” value (Carcinogen: BENZO[A]PYRENE, 50-32-8, Dose [Inhibitor]: 1000 PPM IN DIET CONTAINING 5% CORN OIL BEGINNING 1 WK PRIOR TO 1ST CARCINOGEN TREATMENT AND CONTINUING FOR 18 WK (STUDY, Route [Inhibitor]: ORAL, Species: MOUSE, Strain/Sex: STRAIN-A/FEMALE, Target Tissue: Type of Lesion: LUNG: ADENOMA, Dose [Carcinogen]: 3 MG IN 0.25 ML CORN OIL AT 10 AND 12 WK OF AGE, Promoter: NONE USED) is on record as 97%, 96%, 1%, not significant; the “tumour outcome (control, treated, inhibition, significance)” value (Carcinogen: BENZO[A]PYRENE, 50-32-8, Dose [Inhibitor]: 1500 PPM IN DIET CONTAINING 5% CORN OIL BEGINNING 1 DAY POST LAST CARCINOGEN DOSE AND CONTINUING FOR 12 WK (STUDY DURATI, Route [Inhibitor]: ORAL, Species: MOUSE, Strain/Sex: STRAIN-A/FEMALE, Target Tissue: Type of Lesion: LUNG: ADENOMA, Dose [Carcinogen]: 3 MG IN 0.25 ML CORN OIL AT 6 AND 8 WK OF AGE, Promoter: NONE USED) was 80%, 32%, 60%, not significant; the “tumour outcome (control, treated, inhibition, significance)” value (Carcinogen: BENZO[A]PYRENE, 50-32-8, Dose [Inhibitor]: 1500 PPM IN DIET CONTAINING 5% CORN OIL BEGINNING 1 WK POST LAST CARCINOGEN DOSE AND CONTINUING FOR 12 WK (STUDY DURATIO, Route [Inhibitor]: ORAL, Species: MOUSE, Strain/Sex: STRAIN-A/FEMALE, Target Tissue: Type of Lesion: FORESTOMACH: SQUAMOUS CELL PAPILLOMA, Dose [Carcinogen]: 3 MG IN 0.25 ML CORN OIL AT 6 AND 8 WK OF AGE, Promoter: NONE USED) was 100%, 88%, 12%, not significant; the “tumour outcome (control, treated, inhibition, significance)” value (Carcinogen: BENZO[A]PYRENE, 50-32-8, Dose [Inhibitor]: 1500 PPM IN DIET CONTAINING 5% CORN OIL BEGINNING 4 D POST LAST CARCINOGEN DOSE AND CONTINUING FOR 12 WK (STUDY DURATION, Route [Inhibitor]: ORAL, Species: MOUSE, Strain/Sex: STRAIN-A/FEMALE, Target Tissue: Type of Lesion: FORESTOMACH: SQUAMOUS CELL PAPILLOMA, Dose [Carcinogen]: 3 MG IN 0.25 ML CORN OIL AT 6 AND 8 WK OF AGE, Promoter: NONE USED) is reported as 92%, 80%, 13%, not significant; the “tumour outcome (control, treated, inhibition, significance)” value (Carcinogen: BENZO[A]PYRENE, 50-32-8, Dose [Inhibitor]: 1500 PPM IN DIET CONTAINING 5% CORN OIL BEGINNING 4 D POST LAST CARCINOGEN DOSE AND CONTINUING FOR 12 WK (STUDY DURATION, Route [Inhibitor]: ORAL, Species: MOUSE, Strain/Sex: STRAIN-A/FEMALE, Target Tissue: Type of Lesion: LUNG: ADENOMA, Dose [Carcinogen]: 3 MG IN 0.25 ML CORN OIL AT 6 AND 8 WK OF AGE, Promoter: NONE USED) was 72%, 40%, 44%, not significant. The “tumour outcome (control, treated, inhibition, significance)” value was 100%, 92%, 8%, not significant (Carcinogen: BENZO[A]PYRENE, 50-32-8, Dose [Inhibitor]: 1500 PPM IN DIET CONTAINING 5% CORN OIL BEGINNING 7 D POST LAST CARCINOGEN DOSE AND CONTINUING FOR 12 WK (STUDY DURATION, Route [Inhibitor]: ORAL, Species: MOUSE, Strain/Sex: STRAIN-A/FEMALE, Target Tissue: Type of Lesion: FORESTOMACH: SQUAMOUS CELL PAPILLOMA, Dose [Carcinogen]: 3 MG IN 0.25 ML CORN OIL AT 6 AND 8 WK OF AGE, Promoter: NONE USED); 72%, 60%, 17%, not significant (Carcinogen: BENZO[A]PYRENE, 50-32-8, Dose [Inhibitor]: 1500 PPM IN DIET CONTAINING 5% CORN OIL BEGINNING 7 D POST LAST CARCINOGEN DOSE AND CONTINUING FOR 12 WK (STUDY DURATION, Route [Inhibitor]: ORAL, Species: MOUSE, Strain/Sex: STRAIN-A/FEMALE, Target Tissue: Type of Lesion: LUNG: ADENOMA, Dose [Carcinogen]: 3 MG IN 0.25 ML CORN OIL AT 6 AND 8 WK OF AGE, Promoter: NONE USED); 88%, 100%, -14%, not significant (Carcinogen: BENZO[A]PYRENE, 50-32-8, Dose [Inhibitor]: 1500 PPM IN DIET CONTAINING 5% CORN OIL BEGINNING ON DAY OF LAST CARCINOGEN DOSE AND CONTINUING FOR 12 WK (STUDY DURATIO, Route [Inhibitor]: ORAL, Species: MOUSE, Strain/Sex: STRAIN-A/FEMALE, Target Tissue: Type of Lesion: FORESTOMACH: SQUAMOUS CELL PAPILLOMA, Dose [Carcinogen]: 3 MG IN 0.25 ML CORN OIL AT 6 AND 8 WK OF AGE, Promoter: NONE USED); 76%, 52%, 32%, not significant (Carcinogen: BENZO[A]PYRENE, 50-32-8, Dose [Inhibitor]: 1500 PPM IN DIET CONTAINING 5% CORN OIL BEGINNING ON DAY OF LAST CARCINOGEN DOSE AND CONTINUING FOR 12 WK (STUDY DURATIO, Route [Inhibitor]: ORAL, Species: MOUSE, Strain/Sex: STRAIN-A/FEMALE, Target Tissue: Type of Lesion: LUNG: ADENOMA, Dose [Carcinogen]: 3 MG IN 0.25 ML CORN OIL AT 6 AND 8 WK OF AGE, Promoter: NONE USED); 100%, 63%, 37%, not calculated (Carcinogen: BENZO[A]PYRENE, 50-32-8, Dose [Inhibitor]: 2000 PPM IN DIET CONTAINING 5% CORN OIL BEGINNING 1 WK PRIOR TO 1ST CARCINOGEN TREATMENT AND CONTINUING FOR 18 WK (STUDY, Route [Inhibitor]: ORAL, Species: MOUSE, Strain/Sex: STRAIN-A/FEMALE, Target Tissue: Type of Lesion: FORESTOMACH: SQUAMOUS CELL PAPILLOMA, Dose [Carcinogen]: 3 MG IN 0.25 ML CORN OIL AT 10 AND 12 WK OF AGE, Promoter: NONE USED); 97%, 74%, 24%, not calculated (Carcinogen: BENZO[A]PYRENE, 50-32-8, Dose [Inhibitor]: 2000 PPM IN DIET CONTAINING 5% CORN OIL BEGINNING 1 WK PRIOR TO 1ST CARCINOGEN TREATMENT AND CONTINUING FOR 18 WK (STUDY, Route [Inhibitor]: ORAL, Species: MOUSE, Strain/Sex: STRAIN-A/FEMALE, Target Tissue: Type of Lesion: LUNG: ADENOMA, Dose [Carcinogen]: 3 MG IN 0.25 ML CORN OIL AT 10 AND 12 WK OF AGE, Promoter: NONE USED).
